Values quoted from earlier work, collected in patent US20050089581A1, “Magnesium-containing compositions and methods for enhancing dehydroepiandrosterone levels” (priority 2003, published 2005).

How the values were obtained:
[1] = system: human coxsackievirus B4 strain
[2] = administration of DHEA, its esters, or salts thereof; W. Regelson et al.
platelet aggregation = details: second week, 300 mg DHEA per day orally
[3] = second week, 300 mg DHEA per day orally
DHEA levels = details: oral administration

C[C@]12CCC(O)CC1=CC[C@@H]1[C@@H]2CC[C@]2(C)C(=O)CC[C@@H]12 (stereo partly shown) [DHEA, 3-hydroxyandrost-5-en-17-one]
mortality ([1]; infection with 100,000 plaque forming units/animal, about 90% mortality in infected animals without treatment): 37%
elevation in the number of antibody forming cells ([1]; within the animal, DHEA administered): 80%
side effects [2]: mild androgenic effects and hirsutism
subjects with slower rate of platelet aggregation and need for higher arachidonic acid concentration to initiate aggregation (platelet aggregation): Four of the five test subjects
mean serum DHEA-S level ([3]; DHEA group, baseline 316.2, placebo 260.5+/−56.7): 1451.9 ± 56.7 µg/dL
mean serum DHEA ([3]; treated group, baseline 5.83+/−3.9, placebo 5.58+/−4.1): 28.7 ± 13.9 ng/mL

magnesium taurate
effect on DHEA levels (DHEA levels): does not increase DHEA levels
